Patent US20250034136A1 (Nimbus Wadjet, Inc., priority 2023, published 2025)
Like-named read-outs stand apart in the source and are kept apart here.

Assays:
[1] = system: p21 induction in HCT116 cells; assay: p21 induction in HCT116 cells; type: cell-based; conditions: Homo sapiens, HCT-116, 24 h, read-out: P21_EC50
In short: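 HCT116 cells, 2,000/well, treated 24 h at 37 °C with 11-point compound dilutions in duplicate. Fixed, then immunostained for p21 and GAPDH and read by near-IR imaging at 800/700 nm. Normalized to DMSO (low) and reference WRN inhibitor (high) controls; EC50 from non-linear regression.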

[2] = target: WRN (BV08), human Werner helicase (Uniprot Q14191, amino acids 517-1235 with L1074F point mutation) (Homo sapiens (Human), UniProt Q14191, L1074F); assay: WRN (BV08) ADP-Glo assay; type: biochemical; conditions: class symbols A-E, read-out: ADP-Glo_hWRN_IC50
[3] = HCT116 cells, 24 h compound incubation

Sequence of WRN (BV08), human Werner helicase (Uniprot Q14191, amino acids 517-1235 with L1074F point mutation) (Q14191 other isoform, or with tags, fused parts or gaps L1074F (already in the parent)): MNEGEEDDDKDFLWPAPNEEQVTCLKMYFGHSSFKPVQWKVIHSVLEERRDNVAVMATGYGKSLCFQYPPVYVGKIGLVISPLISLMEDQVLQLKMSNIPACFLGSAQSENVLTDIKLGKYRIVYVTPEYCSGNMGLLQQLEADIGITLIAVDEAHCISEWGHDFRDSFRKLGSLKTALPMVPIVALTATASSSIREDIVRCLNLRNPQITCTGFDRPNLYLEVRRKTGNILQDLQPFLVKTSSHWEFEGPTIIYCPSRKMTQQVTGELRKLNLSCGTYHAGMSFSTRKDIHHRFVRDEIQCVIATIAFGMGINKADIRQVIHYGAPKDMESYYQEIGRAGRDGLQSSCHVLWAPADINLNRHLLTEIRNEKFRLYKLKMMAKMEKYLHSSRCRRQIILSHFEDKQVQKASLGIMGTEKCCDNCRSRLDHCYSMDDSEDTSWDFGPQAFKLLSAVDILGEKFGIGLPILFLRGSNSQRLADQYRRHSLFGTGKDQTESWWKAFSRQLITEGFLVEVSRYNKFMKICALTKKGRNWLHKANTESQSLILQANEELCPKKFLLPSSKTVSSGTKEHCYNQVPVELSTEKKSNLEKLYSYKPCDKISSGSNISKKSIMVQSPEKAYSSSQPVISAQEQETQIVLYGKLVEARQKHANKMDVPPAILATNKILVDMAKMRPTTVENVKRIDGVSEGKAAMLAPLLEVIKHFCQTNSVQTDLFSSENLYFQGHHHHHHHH

**Q.** `CCc1c(N2CCN(C(=O)c3ccnc(OC)c3O)CC2)c(=O)c2ncc(C)nc2n1CC(=O)Nc1ccc(C(F)(F)F)cc1Cl` [I-4, N-(2-chloro-4-(trifluoromethyl)phenyl)-2-(6-ethyl-7-(4-(3-hydroxy-2-methoxyisonicotinoyl)piperazin-1-yl)-3-methyl-8-oxopyrido[2,3-b]pyrazin-5(8H)-yl)acetamide] was tested. Which EC50 [1, 3] did it give?
**A.** > 5000 nM

**Q.** And the IC50 [2]?
**A.** 5 to 50 nM

**Q.** Which results are given for `CCc1c(N2CCN(C(C)=O)CC2)c(=O)c2ncc(C)nc2n1CC(=O)Nc1ccc(C(F)(F)F)cc1Cl` [I-5, 2-(7-(4-acetylpiperazin-1-yl)-6-ethyl-3-methyl-8-oxopyrido[2,3-b]pyrazin-5(8H)-yl)-N-(2-chloro-4-(trifluoromethyl)phenyl)acetamide]?
**A.** EC50 [1, 3]: > 5000 nM; IC50 [2]: 100 to 500 nM

**Q.** How did the EC50 [1, 3] turn out when `CCc1c(N2CCN(C(=O)c3c(O)ccnc3OC)CC2)c(=O)c2ncc(C)nc2n1CC(=O)Nc1ccc(C(F)(F)F)cc1Cl` [I-6, N-(2-chloro-4-(trifluoromethyl)phenyl)-2-(6-ethyl-7-(4-(4-hydroxy-2-methoxynicotinoyl)piperazin-1-yl)-3-methyl-8-oxopyrido[2,3-b]pyrazin-5(8H)-yl)acetamide] was run?
**A.** 2000 to 5000 nM

**Q.** And the IC50 [2]?
**A.** 5 to 50 nM

**Q.** With `CCc1c(N2CCN(C(=O)c3ncnc(C)c3O)CC2)c(=O)c2nc(-c3ccnc(OC)c3)cnc2n1CC(=O)Nc1ccc(C(F)(F)F)cc1Cl` [I-7, N-(2-chloro-4-(trifluoromethyl)phenyl)-2-(6-ethyl-7-(4-(5-hydroxy-6-methylpyrimidine-4-carbonyl)piperazin-1-yl)-2-(2-methoxypyridin-4-yl)-8-oxopyrido[2,3-b]pyrazin-5(8H)-yl)acetamide] as the compound, how does the EC50 [1, 3] read?
**A.** > 5000 nM

**Q.** And the IC50 [2]?
**A.** 5 to 50 nM

**Q.** With `C/C=C/c1cnc2c(n1)c(=O)c(N1CCN(C(=O)c3ncnc(C)c3O)CC1)c(CC)n2CC(=O)Nc1ccc(C(F)(F)F)cc1Cl` [I-8, (E)-N-(2-chloro-4-(trifluoromethyl)phenyl)-2-(6-ethyl-7-(4-(5-hydroxy-6-methylpyrimidine-4-carbonyl)piperazin-1-yl)-8-oxo-2-(prop-1-en-1-yl)pyrido[2,3-b]pyrazin-5(8H)-yl)acetamide] as the compound, how does the EC50 [1, 3] read?
**A.** 500 to 2000 nM

**Q.** What about the IC50 [2] of the same compound?
**A.** 5 to 50 nM

**Q.** Which results are given for `C=C(C)c1cnc2c(n1)c(=O)c(N1CCN(C(=O)c3ncnc(C)c3O)CC1)c(CC)n2CC(=O)Nc1ccc(C(F)(F)F)cc1Cl` [I-9, N-(2-chloro-4-(trifluoromethyl)phenyl)-2-(6-ethyl-7-(4-(5-hydroxy-6-methylpyrimidine-4-carbonyl)piperazin-1-yl)-8-oxo-2-(prop-1-en-2-yl)pyrido[2,3-b]pyrazin-5(8H)-yl)acetamide]?
**A.** EC50 [1, 3]: 500 to 2000 nM; IC50 [2]: 5 to 50 nM

**Q.** `CCc1c(N2CCN(C(=O)c3ncnc(C)c3O)CC2)c(=O)c2nc(C3CC3)cnc2n1CC(=O)Nc1ccc(C(F)(F)F)cc1Cl` [I-10, N-(2-chloro-4-(trifluoromethyl)phenyl)-2-(2-cyclopropyl-6-ethyl-7-(4-(5-hydroxy-6-methylpyrimidine-4-carbonyl)piperazin-1-yl)-8-oxopyrido[2,3-b]pyrazin-5(8H)-yl)acetamide] was tested. Which EC50 [1, 3] did it give?
**A.** 2000 to 5000 nM

**Q.** What about the IC50 [2] of the same compound?
**A.** 5 to 50 nM

**Q.** For `CC#Cc1cnc2c(n1)c(=O)c(N1CCN(C(=O)c3ncnc(C)c3O)CC1)c(CC)n2CC(=O)Nc1ccc(C(F)(F)F)cc1Cl` [I-11, N-(2-chloro-4-(trifluoromethyl)phenyl)-2-(6-ethyl-7-(4-(5-hydroxy-6-methylpyrimidine-4-carbonyl)piperazin-1-yl)-8-oxo-2-(prop-1-yn-1-yl)pyrido[2,3-b]pyrazin-5(8H)-yl)acetamide], which EC50 [1, 3] is on record?
**A.** 2000 to 5000 nM

**Q.** And the IC50 [2]?
**A.** 5 to 50 nM

**Q.** `CCc1c(N2CCN(C(=O)c3ncnc(C)c3O)CC2)c(=O)c2nc(OC)c(C)nc2n1CC(=O)Nc1ccc(C(F)(F)F)cc1Cl` [I-12, N-(2-chloro-4-(trifluoromethyl)phenyl)-2-(6-ethyl-7-(4-(5-hydroxy-6-methylpyrimidine-4-carbonyl)piperazin-1-yl)-2-methoxy-3-methyl-8-oxopyrido[2,3-b]pyrazin-5(8H)-yl)acetamide] was tested. Which EC50 [1, 3] did it give?
**A.** > 5000 nM

**Q.** And the IC50 [2]?
**A.** 5 to 50 nM

**Q.** `CCc1c(N2CCN(C(=O)c3ncnc(C)c3O)CC2)c(=O)c2nc(C(F)F)cnc2n1CC(=O)Nc1ccc(C(F)(F)F)cc1Cl` [I-13, N-(2-chloro-4-(trifluoromethyl)phenyl)-2-(2-(difluoromethyl)-6-ethyl-7-(4-(5-hydroxy-6-methylpyrimidine-4-carbonyl)piperazin-1-yl)-8-oxopyrido[2,3-b]pyrazin-5(8H)-yl)acetamide] was tested. Which EC50 [1, 3] did it give?
**A.** > 5000 nM

**Q.** And the IC50 [2]?
**A.** 50 to 100 nM

**Q.** `CCc1c(N2CCN(C(=O)c3ncnc(C)c3O)CC2)c(=O)c2nc(N(C)C)cnc2n1CC(=O)Nc1ccc(C(F)(F)F)cc1Cl` [I-14, N-(2-chloro-4-(trifluoromethyl)phenyl)-2-(2-(dimethylamino)-6-ethyl-7-(4-(5-hydroxy-6-methylpyrimidine-4-carbonyl)piperazin-1-yl)-8-oxopyrido[2,3-b]pyrazin-5(8H)-yl)acetamide] was tested. Which EC50 [1] did it give?
**A.** 500 to 2000 nM

**Q.** And the IC50 [2]?
**A.** 5 to 50 nM

**Q.** What does the source list for `CCO/C=C/c1cnc2c(n1)c(=O)c(N1CCN(C(=O)c3ncnc(C)c3O)CC1)c(CC)n2CC(=O)Nc1ccc(C(F)(F)F)cc1Cl` [I-15, (E)-N-(2-chloro-4-(trifluoromethyl)phenyl)-2-(2-(2-ethoxyvinyl)-6-ethyl-7-(4-(5-hydroxy-6-methylpyrimidine-4-carbonyl)piperazin-1-yl)-8-oxopyrido[2,3-b]pyrazin-5(8H)-yl)acetamide]?
**A.** EC50 [1, 3]: < 500 nM; IC50 [2]: 5 to 50 nM

**Q.** What does the source list for `CCc1c(N2CCN(C(=O)c3ncnc(C)c3O)CC2)c(=O)c2nc(C3CC3)c(C)nc2n1CC(=O)Nc1ccc(C(F)(F)F)cc1Cl` [I-17, N-(2-chloro-4-(trifluoromethyl)phenyl)-2-(2-cyclopropyl-6-ethyl-7-(4-(5-hydroxy-6-methylpyrimidine-4-carbonyl)piperazin-1-yl)-3-methyl-8-oxopyrido[2,3-b]pyrazin-5(8H)-yl)acetamide]?
**A.** EC50 [1, 3]: 500 to 2000 nM; IC50 [2]: 5 to 50 nM

**Q.** What does the source list for `C=Cc1nc2c(=O)c(N3CCN(C(=O)c4ncnc(C)c4O)CC3)c(CC)n(CC(=O)Nc3ccc(C(F)(F)F)cc3Cl)c2nc1C` [I-18, N-(2-chloro-4-(trifluoromethyl)phenyl)-2-(6-ethyl-7-(4-(5-hydroxy-6-methylpyrimidine-4-carbonyl)piperazin-1-yl)-3-methyl-8-oxo-2-vinylpyrido[2,3-b]pyrazin-5(8H)-yl)acetamide]?
**A.** EC50 [1]: 500 to 2000 nM; IC50 [2]: 5 to 50 nM

**Q.** `CCc1c(N2CCN(C(=O)c3ncnc(C)c3O)CC2)c(=O)c2nc(Cl)cnc2n1CC(=O)Nc1ccc(C(F)(F)F)cc1Cl` [I-19, N-(2-chloro-4-(trifluoromethyl)phenyl)-2-(2-chloro-6-ethyl-7-(4-(5-hydroxy-6-methylpyrimidine-4-carbonyl)piperazin-1-yl)-8-oxopyrido[2,3-b]pyrazin-5(8H)-yl)acetamide] was tested. Which EC50 [1, 3] did it give?
**A.** > 5000 nM

**Q.** What about the IC50 [2] of the same compound?
**A.** 5 to 50 nM

**Q.** Which results are given for `CCc1c(N2CCN(C(=O)c3ncnc(C)c3O)CC2)c(=O)c2nc(NC)cnc2n1CC(=O)Nc1ccc(C(F)(F)F)cc1Cl` [I-20, N-(2-chloro-4-(trifluoromethyl)phenyl)-2-(6-ethyl-7-(4-(5-hydroxy-6-methylpyrimidine-4-carbonyl)piperazin-1-yl)-2-(methylamino)-8-oxopyrido[2,3-b]pyrazin-5(8H)-yl)acetamide]?
**A.** EC50 [1, 3]: > 5000 nM; IC50 [2]: 5 to 50 nM
